Source: ChEMBL document CHEMBL5465560, “Selectivity Literature for EUbOPEN Chemogenomic Library” (2024)

How the values were obtained:
[1] = target: eIF-2-alpha kinase GCN2 (Homo sapiens) (UniProt Q9P2K8); experiment: Selectivity interaction (Kinase panel (KiNativ target engagement assay in Jurkat cells)) EUB0001635a EIF2AK4; assay type: cell-based; details: at 1 µM
[2] = target: Serine/threonine-protein kinase tousled-like 2 (Homo sapiens) (UniProt Q86UE8); experiment: Selectivity interaction (LanthaScreen Eu Kinase Binding Assay) EUB0001632a TLK2; details: at 10 µM
[3] = target: T1, Receptor-interacting serine/threonine-protein kinase 1 (Homo sapiens) (UniProt Q13546); details: at 10 µM
T1 sequence (whole entry): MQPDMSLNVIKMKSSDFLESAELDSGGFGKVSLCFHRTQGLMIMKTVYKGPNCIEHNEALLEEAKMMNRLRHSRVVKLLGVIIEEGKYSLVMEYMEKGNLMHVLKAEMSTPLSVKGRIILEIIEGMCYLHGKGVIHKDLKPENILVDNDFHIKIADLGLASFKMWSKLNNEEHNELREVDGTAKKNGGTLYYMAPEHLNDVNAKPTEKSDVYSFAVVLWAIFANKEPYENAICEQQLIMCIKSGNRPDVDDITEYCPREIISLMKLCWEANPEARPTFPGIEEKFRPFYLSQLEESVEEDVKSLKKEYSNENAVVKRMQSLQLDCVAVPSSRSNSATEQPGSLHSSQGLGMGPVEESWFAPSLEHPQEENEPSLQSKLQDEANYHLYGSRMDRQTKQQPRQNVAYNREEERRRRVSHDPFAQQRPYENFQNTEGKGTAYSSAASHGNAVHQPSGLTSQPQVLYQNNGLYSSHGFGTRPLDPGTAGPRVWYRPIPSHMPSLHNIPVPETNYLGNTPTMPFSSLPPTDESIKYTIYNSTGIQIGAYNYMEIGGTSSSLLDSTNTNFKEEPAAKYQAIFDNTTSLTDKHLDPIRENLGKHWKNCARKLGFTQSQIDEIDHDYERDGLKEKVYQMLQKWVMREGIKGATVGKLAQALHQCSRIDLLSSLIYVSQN

[4] = target: Fibroblast growth factor receptor 3 (Homo sapiens, UniProt P22607); experiment: Selectivity interaction (Millipore kinase profiler) EUB0000124b FGFR3; details: at 10 µM
Fibroblast growth factor receptor 3, sequence (P22607 23-806 limits assumed): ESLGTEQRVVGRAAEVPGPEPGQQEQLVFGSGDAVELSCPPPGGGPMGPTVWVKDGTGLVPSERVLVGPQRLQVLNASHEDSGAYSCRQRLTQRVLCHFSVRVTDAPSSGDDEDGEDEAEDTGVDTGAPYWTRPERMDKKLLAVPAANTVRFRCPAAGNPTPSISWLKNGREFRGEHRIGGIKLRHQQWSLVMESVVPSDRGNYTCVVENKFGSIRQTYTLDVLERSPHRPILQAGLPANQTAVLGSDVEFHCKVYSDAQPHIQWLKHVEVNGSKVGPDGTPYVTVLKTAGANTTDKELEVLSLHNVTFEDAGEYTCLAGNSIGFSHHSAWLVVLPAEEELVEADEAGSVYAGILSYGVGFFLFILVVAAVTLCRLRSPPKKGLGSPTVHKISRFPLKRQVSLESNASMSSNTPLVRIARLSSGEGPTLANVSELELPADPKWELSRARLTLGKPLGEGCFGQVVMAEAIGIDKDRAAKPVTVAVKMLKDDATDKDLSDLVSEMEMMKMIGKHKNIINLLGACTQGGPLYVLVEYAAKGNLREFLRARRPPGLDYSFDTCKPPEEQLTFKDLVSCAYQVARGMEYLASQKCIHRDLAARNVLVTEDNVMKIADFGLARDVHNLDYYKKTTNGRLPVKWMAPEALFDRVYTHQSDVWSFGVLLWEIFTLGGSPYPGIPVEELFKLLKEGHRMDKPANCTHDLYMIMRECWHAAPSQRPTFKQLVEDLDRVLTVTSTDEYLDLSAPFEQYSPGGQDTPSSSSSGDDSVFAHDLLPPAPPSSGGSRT

[5] = target: T2, Scaffold protein ILK (Homo sapiens) (UniProt Q13418); experiment: Selectivity interaction (ActivX KiNativ screen (ex vivo kinase selectivity in human PBMCs)) EUB0001619a ILK; assay type: cell-based; details: PBMC, at 1 µM
T2 sequence (whole entry): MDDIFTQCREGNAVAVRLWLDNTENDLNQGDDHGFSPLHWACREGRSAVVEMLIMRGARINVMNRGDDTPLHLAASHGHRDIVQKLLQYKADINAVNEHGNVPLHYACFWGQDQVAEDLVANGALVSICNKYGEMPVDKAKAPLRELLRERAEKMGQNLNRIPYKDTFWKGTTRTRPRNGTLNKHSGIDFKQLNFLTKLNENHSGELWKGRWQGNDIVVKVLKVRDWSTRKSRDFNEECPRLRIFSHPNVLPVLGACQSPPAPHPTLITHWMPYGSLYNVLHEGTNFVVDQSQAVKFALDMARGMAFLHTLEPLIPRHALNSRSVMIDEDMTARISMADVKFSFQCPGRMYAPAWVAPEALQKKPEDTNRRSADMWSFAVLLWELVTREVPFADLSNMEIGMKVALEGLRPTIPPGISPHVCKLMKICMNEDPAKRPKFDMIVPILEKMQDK

[6] = test system: Proto-oncogene tyrosine-protein kinase receptor Ret (Homo sapiens), P07949 [M918T]; experiment: (§1) Selectivity interaction (KinomeScan (DiscoverX)) EUB0000607a RET; details: at 10 µM
Proto-oncogene tyrosine-protein kinase receptor Ret (Homo sapiens), P07949 [M918T], sequence (P07949 whole entry M918T): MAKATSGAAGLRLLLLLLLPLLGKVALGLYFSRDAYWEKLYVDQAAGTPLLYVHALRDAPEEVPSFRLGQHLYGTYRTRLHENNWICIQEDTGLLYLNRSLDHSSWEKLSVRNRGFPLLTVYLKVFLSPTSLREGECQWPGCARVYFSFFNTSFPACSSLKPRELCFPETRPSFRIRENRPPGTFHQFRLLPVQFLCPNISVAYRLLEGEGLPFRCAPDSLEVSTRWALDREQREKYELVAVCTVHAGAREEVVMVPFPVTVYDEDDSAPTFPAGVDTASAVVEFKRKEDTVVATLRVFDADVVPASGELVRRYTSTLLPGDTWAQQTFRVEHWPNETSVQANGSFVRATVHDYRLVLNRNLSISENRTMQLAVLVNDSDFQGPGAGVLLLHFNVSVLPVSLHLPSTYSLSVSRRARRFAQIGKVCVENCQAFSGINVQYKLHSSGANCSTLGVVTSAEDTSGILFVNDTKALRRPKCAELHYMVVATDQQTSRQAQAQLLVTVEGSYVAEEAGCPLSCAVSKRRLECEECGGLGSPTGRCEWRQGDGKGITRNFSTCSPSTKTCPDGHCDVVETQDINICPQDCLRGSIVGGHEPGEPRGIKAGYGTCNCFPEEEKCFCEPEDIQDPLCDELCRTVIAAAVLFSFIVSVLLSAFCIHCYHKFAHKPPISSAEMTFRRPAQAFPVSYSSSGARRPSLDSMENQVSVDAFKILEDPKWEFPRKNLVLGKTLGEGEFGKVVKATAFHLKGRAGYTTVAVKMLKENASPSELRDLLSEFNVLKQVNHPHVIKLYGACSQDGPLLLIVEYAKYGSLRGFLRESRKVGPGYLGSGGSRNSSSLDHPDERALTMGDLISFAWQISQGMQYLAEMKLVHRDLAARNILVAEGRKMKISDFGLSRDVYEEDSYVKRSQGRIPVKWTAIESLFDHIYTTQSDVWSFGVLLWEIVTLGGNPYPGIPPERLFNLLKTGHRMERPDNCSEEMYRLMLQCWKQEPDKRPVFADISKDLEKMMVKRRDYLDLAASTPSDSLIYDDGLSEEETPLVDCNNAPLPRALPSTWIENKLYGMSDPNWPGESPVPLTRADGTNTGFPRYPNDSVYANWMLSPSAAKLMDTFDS

[7] = test system: Proto-oncogene tyrosine-protein kinase receptor Ret (Homo sapiens), P07949 [V804L]; experiment: as §1; details: at 10 µM
Proto-oncogene tyrosine-protein kinase receptor Ret (Homo sapiens), P07949 [V804L], sequence (P07949 whole entry V804L): as the sequence (P07949 whole entry M918T) above, with V804L, T918M counted along it

[8] = test system: Proto-oncogene tyrosine-protein kinase receptor Ret (Homo sapiens), P07949 [V804M]; experiment: as §1; details: at 10 µM
Proto-oncogene tyrosine-protein kinase receptor Ret (Homo sapiens), P07949 [V804M], sequence (P07949 whole entry V804M): as the sequence (P07949 whole entry M918T) above, with V804M, T918M counted along it

[9] = target: Proto-oncogene tyrosine-protein kinase receptor Ret (Homo sapiens, UniProt P07949); experiment: as §1; details: at 10 µM
Proto-oncogene tyrosine-protein kinase receptor Ret, sequence (P07949 whole entry): as the sequence (P07949 whole entry M918T) above, with T918M counted along it

[10] = target: Cyclin-dependent kinase 2 (Homo sapiens, UniProt P24941); experiment: Selectivity interaction (KinomeScan (DiscoverX)) EUB0000618a CDK2; details: at 10 µM
[11] = target: Casein kinase II subunit alpha (Homo sapiens, UniProt P68400); experiment: Selectivity interaction (Kinase panel (Invitrogen)) EUB0000639a CSNK2A1; details: at 200 nM
Casein kinase II subunit alpha, sequence (P68400 whole entry, looked up): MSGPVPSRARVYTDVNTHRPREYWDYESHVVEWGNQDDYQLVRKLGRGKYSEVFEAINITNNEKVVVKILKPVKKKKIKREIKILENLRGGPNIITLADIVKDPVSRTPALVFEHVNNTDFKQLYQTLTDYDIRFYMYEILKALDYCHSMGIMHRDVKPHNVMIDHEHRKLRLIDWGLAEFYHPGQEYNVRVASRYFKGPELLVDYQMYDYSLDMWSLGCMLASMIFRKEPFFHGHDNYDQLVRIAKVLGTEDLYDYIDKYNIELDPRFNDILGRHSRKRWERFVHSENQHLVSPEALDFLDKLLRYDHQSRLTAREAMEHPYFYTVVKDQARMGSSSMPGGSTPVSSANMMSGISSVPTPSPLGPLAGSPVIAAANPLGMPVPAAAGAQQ

[12] = target: Ribosomal protein S6 kinase beta-1 (Homo sapiens, UniProt P23443); experiment: Selectivity interaction (KinomeScan (DiscoverX)) EUB0000655a RPS6KB1; details: at 10 µM
Ribosomal protein S6 kinase beta-1, sequence (P23443 whole entry, looked up): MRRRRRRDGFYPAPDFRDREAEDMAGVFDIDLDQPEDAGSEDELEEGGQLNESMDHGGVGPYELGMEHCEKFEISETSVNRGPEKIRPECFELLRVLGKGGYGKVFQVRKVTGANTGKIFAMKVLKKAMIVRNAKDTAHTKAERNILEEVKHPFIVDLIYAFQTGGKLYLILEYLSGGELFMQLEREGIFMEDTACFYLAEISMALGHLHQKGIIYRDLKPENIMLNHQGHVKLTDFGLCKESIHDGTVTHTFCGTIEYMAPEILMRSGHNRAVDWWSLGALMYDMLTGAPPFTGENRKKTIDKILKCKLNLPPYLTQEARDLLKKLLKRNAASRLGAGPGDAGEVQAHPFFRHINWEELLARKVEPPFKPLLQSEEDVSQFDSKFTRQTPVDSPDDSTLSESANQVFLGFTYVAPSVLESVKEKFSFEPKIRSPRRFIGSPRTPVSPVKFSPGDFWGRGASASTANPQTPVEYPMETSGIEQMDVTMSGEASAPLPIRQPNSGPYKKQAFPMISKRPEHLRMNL

[13] = target: TRAF2 and NCK-interacting protein kinase (Homo sapiens) (UniProt Q9UKE5); experiment: Selectivity interaction (KinomeScan (DiscoverX)) EUB0000655a TNIK; details: at 10 µM
[14] = test system: Phosphatidylinositol 4,5-bisphosphate 3-kinase catalytic subunit alpha isoform (Homo sapiens), P42336 [C420R]; experiment: (§2) Selectivity interaction (Ambit KINOMEscan) EUB0000092b PIK3CA; details: at 10 µM
[15] = test system: Phosphatidylinositol 4,5-bisphosphate 3-kinase catalytic subunit alpha isoform (Homo sapiens), P42336 [E545K]; experiment: as §2; details: at 10 µM

eIF-2-alpha kinase GCN2 (Homo sapiens), sequence (Q9P2K8 whole entry): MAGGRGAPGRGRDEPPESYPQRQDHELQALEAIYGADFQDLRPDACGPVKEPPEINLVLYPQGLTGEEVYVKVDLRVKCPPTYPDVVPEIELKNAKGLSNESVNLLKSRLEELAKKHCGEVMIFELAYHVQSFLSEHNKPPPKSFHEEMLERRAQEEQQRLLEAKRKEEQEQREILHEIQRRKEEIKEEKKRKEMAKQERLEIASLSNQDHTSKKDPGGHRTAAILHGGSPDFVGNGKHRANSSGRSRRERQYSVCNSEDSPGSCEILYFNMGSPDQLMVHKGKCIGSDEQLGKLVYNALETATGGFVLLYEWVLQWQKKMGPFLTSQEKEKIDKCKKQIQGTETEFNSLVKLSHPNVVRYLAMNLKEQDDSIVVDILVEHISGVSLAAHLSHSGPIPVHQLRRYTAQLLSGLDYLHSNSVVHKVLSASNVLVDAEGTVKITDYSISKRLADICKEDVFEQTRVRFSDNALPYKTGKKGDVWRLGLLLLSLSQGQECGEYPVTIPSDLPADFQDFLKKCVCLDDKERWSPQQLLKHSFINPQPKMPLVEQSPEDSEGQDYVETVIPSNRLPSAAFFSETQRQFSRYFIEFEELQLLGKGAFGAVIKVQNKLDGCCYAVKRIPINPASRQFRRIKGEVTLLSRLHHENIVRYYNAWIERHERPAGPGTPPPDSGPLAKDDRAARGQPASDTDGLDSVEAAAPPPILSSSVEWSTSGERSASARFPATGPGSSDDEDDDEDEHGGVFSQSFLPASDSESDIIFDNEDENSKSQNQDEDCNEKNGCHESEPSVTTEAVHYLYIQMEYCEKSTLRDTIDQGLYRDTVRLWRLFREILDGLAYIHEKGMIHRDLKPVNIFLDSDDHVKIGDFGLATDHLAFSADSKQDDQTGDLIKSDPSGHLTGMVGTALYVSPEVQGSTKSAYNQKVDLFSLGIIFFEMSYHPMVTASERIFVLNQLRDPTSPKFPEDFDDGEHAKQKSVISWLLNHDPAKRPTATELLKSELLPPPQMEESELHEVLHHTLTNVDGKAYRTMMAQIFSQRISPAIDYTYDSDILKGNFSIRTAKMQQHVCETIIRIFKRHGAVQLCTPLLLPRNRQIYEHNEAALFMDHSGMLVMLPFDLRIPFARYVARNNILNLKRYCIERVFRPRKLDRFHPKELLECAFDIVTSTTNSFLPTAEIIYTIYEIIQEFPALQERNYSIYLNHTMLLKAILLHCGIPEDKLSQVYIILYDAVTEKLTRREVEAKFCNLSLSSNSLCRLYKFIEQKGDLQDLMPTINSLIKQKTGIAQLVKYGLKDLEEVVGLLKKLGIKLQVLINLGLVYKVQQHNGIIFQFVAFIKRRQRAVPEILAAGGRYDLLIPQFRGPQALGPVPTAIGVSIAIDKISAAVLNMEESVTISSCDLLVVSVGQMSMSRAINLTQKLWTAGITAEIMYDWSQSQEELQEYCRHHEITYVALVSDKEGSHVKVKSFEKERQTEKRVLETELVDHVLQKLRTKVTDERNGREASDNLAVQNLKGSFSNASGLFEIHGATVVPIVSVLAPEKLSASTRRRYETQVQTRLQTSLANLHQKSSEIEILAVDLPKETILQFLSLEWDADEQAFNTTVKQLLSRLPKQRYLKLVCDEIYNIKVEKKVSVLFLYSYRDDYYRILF

`C=CC(=O)Nc1ccc(C(=O)Nc2[nH]nc3c2CN(C(=O)N[C@H](CN(C)C)c2ccccc2)C3(C)C)cc1` showed a % of engagement ([1]; Selectivity number of off-targets 0.0, Selectivity number of targets 233.0, Source Knowledge https://www.sciencedirect.com/science/article/pii/S2451945619300674?via%3Dihub) of -7.2% and a % of engagement [1] of -16.6%.

`Cn1cc(-n2cnc3c(NCc4nc5cc(Cl)c(Cl)cc5[nH]4)nc(N4CCOCC4)nc32)cn1` gave a % of inhibition [2] of -11.9%.

Compound `Cc1cc([C@@H](C)Nc2ccccc2C(=O)O)c2nc(N3CCOCC3)cc(=O)n2c1` [AZD-6482] has a % of control [3] of 100%.

`CC(=O)Nc1cccc(-n2c(=O)n(C3CC3)c(=O)c3c(Nc4ccc(I)cc4F)n(C)c(=O)c(C)c32)c1` was tested, and the % of control [4] was 98%.

Work on `N#Cc1cccc(-c2c[nH]c3ncnc(N4CCOCC4)c23)c1` yielded a % of inhibition [5] of -32%.

`CNC(=O)Nc1ccc(-c2nc(N3CC4CCC(C3)O4)c3cnn(C4CCC5(CC4)OCCO5)c3n2)cc1` showed a % of control [6] of 73%, a % of control [7] of 85% and a % of control [8] of 100%. The % of control [9] was 91%.

Work on `O[C@H]1CC[C@H](Nc2ncc3nc(Nc4c(F)cc(F)cc4F)n([C@H]4CCOC4)c3n2)CC1` yielded a % of control [10] of 100%.

With `CC[C@@H]1[C@H](F)C(=O)N[C@@H]1COc1nccc2cc(C(N)=O)c(OC)cc12` [ZIMLOVISERTIB] the % of inhibition [11] was -1.15%.

In the case of `CN(C)CCOc1ccc(-c2nc(-c3ccncc3)c(-c3ccc4c(c3)CC/C4=N\O)[nH]2)cc1`, the % of control [12] is reported as 85% and the % of control [13] is reported as 12%.

Compound `CCC(=O)N1CCN(c2ccc(-n3c(=O)ccc4cnc5ccc(-c6cnc7ccccc7c6)cc5c43)cc2C(F)(F)F)CC1` has a % of control [14] of 0.7% and a % of control [15] of 0.6%.
